# Measured values reported in patent US12653896B2, “Targeted dendrimer conjugates” (Starpharma Pty Ltd, priority 2019, dated 2026).
# Key:
# ErbB2-ECD = molecular target: T1, ErbB2-ECD (Homo sapiens, UniProt P04626); assay: SPR binding to immobilized ErbB2-ECD; conditions: result in words
# T1 construct: Direct Immobilization of ErbB2-ECD
# Protocol: Using a ProteOn XPR36 instrument, ErbB2-ECD was immobilized at 25° C. onto a GLC sensor chip surface (Bio-Rad), with HBS-P+ running buffer (10 mM HEPES, pH 7.4, 150 mM NaCl, 0.05% Tween 20). Standard amine coupling methodology described in Bio-Rad's amine coupling kit was utilized for this immobilization. Lane 1 was activated with a 50:50 mixture of EDC (0.5 mM) and sulfo-NHS (0.125 mM). ErbB2 protein was diluted to […] in 10 mM sodium acetate, pH 5.0 and injected over the activated surface channel. Any remaining activated sites were blocked with 1 M ethanolamine-HCl, pH 8.5.
# All SPR binding experiments were performed at 25° C. using HBS-EP+/BSA (10 mM HEPES, pH 7.4, 150 mM NaCl, 3 mM EDTA, 0.05% Tween20, 0.1 mg/ml BSA) as the instrument running buffer (RB). Following immobilization procedures, various concentrations of anti-ErbB2 affibodies and their MMAE-dendrimer conjugates were injected at 60 μl/min over immobilized ErbB2 proteins and their association monitored for 90 sec. Running buffer was subsequently injected over bound Ab-ErbB2 complexes and dissociation monitored for up to 60 min. […] All binding measurements were performed in triplicate.
# Collected experimental data were processed using Scrubber-Pro software (www.biologic.com.au). […]
# MDA-MB-231/HER2 cells = assay: In vitro association study (flow cytometry, Cy5), MDA-MB-231/HER2; assay type: cell-based, human; conditions: for cellular association value (DFO/Cy5 BHA dendrimers; quantity not named, table stands under 'Percent of cellular association'): MDA-MB-231/HER2, 0.5 h
# Protocol: (§1) MDA-MB-231, MDA-MB-231/HER2 (HER2 knock in) (as described above), or SKOV-3 cells were seeded in a 24-well plate (1×10^5 cells per well) in 500 μL of appropriate growth media with the addition of 10% (v/v) fetal bovine serum (FBS) and incubated with compound 36 or 41 at 3.33 nM, […] atmosphere. After incubation, non-binding/non-associating particles were removed from adherent cells by gently washing with DPBS three times (300 μL/well). Cells were removed from plates by treatment with TrypLE™ Express Enzyme (1×), no phenol red (150 μL/well) for 5-10 min at room temperature. The plates were then placed on ice. Cellular binding and association of sample were then determined through flow cytometry by the acquisition of the signal from Cy5.
# MDA-MB-231 cells [1] = assay: In vitro association study (flow cytometry, Cy5), MDA-MB-231; assay type: cell-based, human; conditions: for cellular association value (DFO/Cy5 BHA dendrimers; quantity not named, table stands under 'Percent of cellular association'): MDA-MB-231, 0.5 h
# Protocol: as §1
# MDA-MB-453 cells = assay: Cell association by flow cytometry (Cy5), MDA-MB-453; assay type: cell-based, human; conditions: for Mean Fluorescence Intensity (Cy5), MFI: MDA-MB-453, 1 hour on ice, triplicate wells; for binding to HER2-positive MDA-MB-453 cells: result in words
# Protocol: The HER2-expressing human metastatic carcinoma cell line MDA-MB-453 (ATCC HTB-131) and the HER2-negative epithelial adenocarcinoma cell line MDA-MB-231 (ATCC HTB-26) were maintained in Dulbecco's Modified Eagle's Medium (DMEM) containing 10% FBS and penicillin-streptomycin (100 U/mL) at 37° C. under a 5% CO2 humidified atmosphere and subcultured prior to confluence using trypsin. Human adenocarcinoma ovary cell line SKOV-3 (ATCC® HTB-77) cells were maintained in RPMI media with the addition of 10% (v/v) FBS and penicillin-streptomycin (100 U/mL) at 37° C. in a 5% CO2 humidified atmosphere and subcultured prior to confluence.
# For measurement of cell association by flow cytometry, cells in suspension were added at 1×10^5 cells per well to a 96 well assay plate. Following incubation with nanobody-dendrimer or unconjugated dendrimer for 1 hour on ice, cells were washed three times with 200 ul of DMEM containing 10% FBS to remove unbound dendrimer. Cells were then resuspended in chilled Fluorobrite media supplemented with 10% FBS and Cy5 fluorescence measured using 642 nm excitation and emission collected between 661-691 nm. To measure internalisation kinetics, nanobody-dendrimer was incubated with cells for 24, 4, 1, 0.5 and 0.1 hours at 37° C. before unbound nanobody-dendrimer was removed by washing and analysed by flow cytometry.
# MDA-MB-231 cells [2] = assay: In vitro association study of G5 cabazitaxel dendrimers, MDA-MB-231; assay type: cell-based, human; conditions: MDA-MB-231, 3.33 nM
# Protocol: (§2) MDA-MB-231, MDA-MB-231/HER2 (HER2 knock in), or SKOV-3 cells were seeded in a 24-well plate (1×10^5 cells per well) in 500 μL of appropriate growth media with the addition of 10% (v/v) fetal bovine serum (FBS) and 1% (v/v) penicillin-streptomycin, and incubated with compound 70 (G5, PEG1000, CTX) or 78 (2D3, G5, PEG1000, CTX) at 3.33 nM, with incubation time varied from 1 to 24 h at 37° C. in a 5% CO2 humidified atmosphere. After incubation, non-binding/non-associating particles were removed from adherent cells by gently washing with DPBS three times (300 μL/well). Cells were removed from plates by treatment with TrypLE™ Express Enzyme (1×), no phenol red (150 μL/well) for 5-10 min at room temperature. The plates were then placed on ice. Cellular binding and association of sample were then determined through flow cytometry by the acquisition of the signal from Cy5.
# [3] = system: MDA-MB-231/HER2 (HER2 knock in) cells; assay: In vitro association study of G5 cabazitaxel dendrimers, MDA-MB-231/HER2; assay type: cell-based, human; conditions: MDA-MB-231/HER2, 3.33 nM
# Protocol: as §2
# SKOV-3 cells = assay: In vitro association study of G5 cabazitaxel dendrimers, SKOV-3; assay type: cell-based, human; conditions: SKOV-3, 3.33 nM
# Protocol: as §2
Substance,"cellular association value (DFO/Cy5 BHA dendrimers; quantity not named, table stands under 'Percent of cellular association') (MDA-MB-231/HER2 cells)","cellular association value (DFO/Cy5 BHA dendrimers; quantity not named, table stands under 'Percent of cellular association') (MDA-MB-231 cells [1])","Mean Fluorescence Intensity (Cy5), MFI (MDA-MB-453 cells)",binding to HER2-positive MDA-MB-453 cells (MDA-MB-453 cells),"Mean fluorescence intensity (MDA-MB-231/HER2 cells; MDA-MB-231/HER2, 1 h)","Mean fluorescence intensity (MDA-MB-231/HER2 cells; MDA-MB-231/HER2, 2 h)","Mean fluorescence intensity (MDA-MB-231/HER2 cells; MDA-MB-231/HER2, 4 h)","Mean fluorescence intensity (MDA-MB-231/HER2 cells; MDA-MB-231/HER2, 24 h)","Mean fluorescence intensity (MDA-MB-231 cells [1]; MDA-MB-231, 1 h)","Mean fluorescence intensity (MDA-MB-231 cells [1]; MDA-MB-231, 2 h)","Mean fluorescence intensity (MDA-MB-231 cells [1]; MDA-MB-231, 4 h)","Mean fluorescence intensity (MDA-MB-231 cells [1]; MDA-MB-231, 24 h)",other results
Azido-PEG24CO—[N(PN)2[Lys]8[(α-NH-Glu-Val-Cit-PAB-MMAE)8(ε-NH-COPEG2000)8] [Compound 21],,,,,,,,,,,,,binding to ErbB2 (ErbB2-ECD): No binding
BHALys[Lys]2[Lys]4[Lys]8[((α-NH-COPEG24NH-COPEG4(PhTzMe)/TCO-PEG3NH-COPEG24NH-Glu-DBCO)1(α-Lys(α-NHCy5)(ε-NHDFO))1(α-NH2)6)(ε-NH-COPEG1000)8] [Compound 83],43.23 ± 3.48,42.8 ± 2.78,,,,,,,,,,,
(MeTzPh)PEG4CO-NHPEG24CO—[N(PN)2][Lys]8[((α-NHCy5)1(α-NHAc)7)(ε-NH-COPEG1100)8] [Compound 37],,,3.097 ± 0.01,did not bind,293.0 ± 8.5,268.0 ± 11.3,241.5 ± 17.7,206.0 ± 2.8,258.3 ± 19.6,256.7 ± 24.8,221.3 ± 3.5,215.3 ± 4.9,"Percent of cellular association (MDA-MB-231/HER2 cells; MDA-MB-231/HER2, 1 h): 2.47 ± 0.81%; Percent of cellular association (MDA-MB-231 cells [1]; MDA-MB-231, 1 h): 1.10 ± 0.35%; Percent of cellular association (MDA-MB-231 cells [1]; MDA-MB-231, 2 h): 1.23 ± 0.47%"
(MeTzPh)PEG4CO-NHPEG24CO—[N(PN)2][Lys]16[((α-NHCy5)1(α-NHAc)15)(ε-NH-COPEG1100)16] [Compound 38],,,6.827 ± 0.07,did not bind,269.0 ± 19.8,225.0 ± 5.7,198.0 ± 2.8,175.5 ± 0.7,239.3 ± 1.2,230.7 ± 2.3,217.3 ± 3.2,195.7 ± 0.6,"Percent of cellular association (MDA-MB-231/HER2 cells; MDA-MB-231/HER2, 1 h): 0.90 ± 0.35%; Percent of cellular association (MDA-MB-231/HER2 cells; MDA-MB-231/HER2, 2 h): 0.50 ± 0.10%; Percent of cellular association (MDA-MB-231/HER2 cells; MDA-MB-231/HER2, 4 h): 0.50 ± 0.35%; Percent of cellular association (MDA-MB-231/HER2 cells; MDA-MB-231/HER2, 24 h): 0.37 ± 0.15%"
BHALys[Lys]2[Lys]4[((α-NH-COPEG24NH-COPEG4(PhTzMe/TCO-PEG3NH-COPEG24NH-Glu-DBCO))1(α-Lys(α-NHCy5)(ε-NHDFO))1(α-NH2)2)(ε-NH-COPEG1000)4] [Compound 82],14.83 ± 1.60,23.3 ± 3.98,,,,,,,,,,,
(MeTzPh)PEG4CO-NHPEG24CO—[N(PN)2][Lys]32[((α-NHCy5)1(α-NHAc)31)(ε-NH-COPEG1100)32] [Compound 39],,,4.349 ± 0.08,did not bind,257.5 ± 12.0,249.0 ± 15.6,207.0 ± 2.8,207.5 ± 40.3,252.0 ± 6.0,249.0 ± 8.7,247.3 ± 7.2,196.3 ± 3.1,"Percent of cellular association (MDA-MB-231/HER2 cells; MDA-MB-231/HER2, 4 h): 0.47 ± 0.21%; Percent of cellular association (MDA-MB-231 cells [1]; MDA-MB-231, 1 h): 0.97 ± 0.12%"
BHALys[Lys]2[Lys]4[Lys]8[Lys]16[((α-NH-COPEG24NH-COPEG4(PhTzMe)/TCO-PEG3NH-COPEG24NH-Glu-DBCO)1(α-Lys(α-NHCy5)(ε-NHDFO))1(α-NH2)14)(ε-NH-COPEG1000)16] [Compound 84],16.7 ± 2.48,20.23 ± 0.63,,,,,,,,,,,
Azido-PEG24CO—[N(PN)2][Lys]8[(α-NH-Glu-Val-Cit-PAB-MMAE)8(ε-NH-COPEG1100)8] [Compound 20],,,,,,,,,,,,,binding to ErbB2 (ErbB2-ECD): No binding
BHA[Lys]32[((α-NH-COPEG24NH-COPEG4(PhMeTz))1-4(α-NHCy5)1(α-NH-COPEG9-Val-Ala-PAB-P-Trigger-NMeCO-CTX)22) (α-NH2)5-8(ε-NH-COPEG1100)32] [Compound 70],,,,,,,,,,,,,Mean fluorescence intensity (MFI) (MDA-MB-231 cells [2]; 1 h): 1.00 ± 0.14; Mean fluorescence intensity (MFI) (MDA-MB-231 cells [2]; 3 h): 4.10 ± 0.71; Mean fluorescence intensity (MFI) (MDA-MB-231 cells [2]; 6 h): 5.65 ± 0.64; Mean fluorescence intensity (MFI) (MDA-MB-231 cells [2]; 24 h): 13.4 ± 0.07; binding over 24 h (MDA-MB-231 cells [2]; in words): minimal binding; Mean fluorescence intensity (MFI) ([3]; 1 h): 0.77 ± 0.06; Mean fluorescence intensity (MFI) ([3]; 3 h): 7.72 ± 4.17; Mean fluorescence intensity (MFI) ([3]; 6 h): 5.82 ± 0.07; Mean fluorescence intensity (MFI) ([3]; 24 h): 12.4±0.64; binding over 24 h ([3]; in words): minimal binding; Mean fluorescence intensity (MFI) (SKOV-3 cells; 1 h): 1.00 ± 0.29; Mean fluorescence intensity (MFI) (SKOV-3 cells; 3 h): 3.46 ± 0.69; Mean fluorescence intensity (MFI) (SKOV-3 cells; 6 h): 3.90 ± 0.10; Mean fluorescence intensity (MFI) (SKOV-3 cells; 24 h): 11.4±0.42; binding over 24 h (SKOV-3 cells; in words): minimal binding
BHALys[Lys]2[Lys]4[Lys]8[Lys]16[Lys]32[((α-NH-COPEG24NH-COPEG4(PhTzMe)/TCO-PEG3NH-COPEG24NH-Glu-DBCO)1(α-Lys(α-NHCy5)(ε-NHDFO))1(α-NH2)30)(ε-NH-COPEG1000)32] [Compound 85],25.6 ± 0.43,33.23 ± 2.2,,,,,,,,,,,
